Source: publication PMC5405074, “Receptor-Mediated Melanoma Targeting with Radiolabeled α-Melanocyte-Stimulating Hormone: Relevance of the Net Charge of the Ligand” (Frontiers in Endocrinology, 2017)
Like-named read-outs stand apart in the source and are kept apart here. Non-standard residues stand in square brackets, D forms with d. Residues, ends and D or L forms follow the SMILES beside them. *: point of attachment. DOTA = O=C(O)CN1CCN(CC(=O)O)CCN(CC(=O)*)CCN(CC(=O)O)CC1; Nle = CCCC[C@H](N)C(=O)O

Tests used:
[1] = target: T1, MC1R (B16-F1 cells) (Mus musculus, UniProt Q01727); assay: Competition binding assay with [^125I]-NDP-MSH, mouse B16-F1 melanoma cells; conditions: B16-F1 cells
T1 construct: endogenous in cells; host or cells: mouse B16-F1 melanoma cells
Method: (§1) Triplicates of 100-µL volumes of B16-F1 or HBL cell suspensions adjusted to 4 × 10^6/mL were incubated in 96-well U-bottom microplates (Falcon 3077). The binding medium consisted of MEM with Earle’s salts, 0.2% BSA, and 0.3 mM 1,10-phenanthroline. This binding medium was called mouse binding medium (MBM). Triplicates of competitor peptide solution (50 µL) yielding final concentrations ranging from 1 × 10^−6 to 1 × 10^−12 M were added. [^125I]NDP-MSH (50,000 cpm) in 50 µL was finally added to each well. The plates were incubated at 15°C for 3 h for B16-F1 cells and at 37°C for 2 h for HBL cells. The incubation was stopped by covering the plates with ice for 10 min. A cell harvester was used to collect cell-bound radioactivity on filters (Packard Unifilter-96 GF/B). The collected radioactivity was counted on a TopCount scintillation counter (Packard) after addition of 50 µL Microscint-20 scintillation cocktail (Perkin Elmer). The IC50 values were calculated with the Prism 6 software (GraphPad Software Inc., San Diego CA, USA).
(§2) The binding affinity of the peptides to MC1R was assessed by competition binding assays using [^125I]-NDP-MSH as radioligand and both murine B16-F1 and human HBL cells.

[2] = target: T2, MC1R (HBL cells) (Homo sapiens, UniProt Q01726); assay: Competition binding assay with [^125I]-NDP-MSH, human HBL melanoma cells; conditions: HBL cells
T2 construct: endogenous in cells; host or cells: human HBL melanoma cell line
Method: as §1, §2

[3] = tested on: B16-F1 cells; assay: Internalization by cultured B16-F1 cells; type: cell-based, mouse; conditions: 37°C, 0.5, 2 and 3.5 h, 74 kBq radioligand
Method: B16-F1 cells were seeded in six-well plates and incubated overnight in MEM at 37°C. For the internalization experiments, MEM was replaced by 1 mL MBM (see above) as internalization buffer. After a 1-h incubation at 37°C, 74 kBq of radioligand (^111In-labeled peptides) was added, and the plates were incubated for different time periods. Non-specific internalization was determined by addition of 50 µL of a 1 µM α-MSH solution to the incubation mixture. After the desired incubation times, the cells were extensively washed with MBM kept at 37°C to remove excess radioligand. Incubation in 2 mL ice-cold acid buffer (acetate-buffered Hank’s balanced salt solution, pH 5) for 10 min allowed dissociation of surface-bound ligand. After collection of the acid buffer fraction, the cells were rinsed once with cold MBM, and the washings were pooled with the acid buffer fraction. The cells were washed again with MBM kept at 37°C, lysed in a 1% Triton X-100 solution, and finally transferred to tubes for quantification. The radioactivity of all collected fractions was measured in a γ-counter. A counting plate underwent the same treatment as the plate incubated for the longest time, but its cells were detached with 0.02% EDTA in PBS instead of being lysed with the Triton X-100 solution. Cells from three wells were collected, counted, and thus allowed for normalization of the results obtained. Results were expressed as percent of the added dose per million cells.
Figure 3 Determination of internalization of [^111In] DOTA-NAP-D-Asp-D-Asp (A) and [^111In]DOTA-Phospho-MSH2-9 (B) by cultured B16-F1 cells exposed to the peptides at 37°C for 0.5, 2, and 3.5 h. Surface-bound radioligand was released by an acid buffer wash, and internalized radioligand was determined by lysing cells with detergent. Results are expressed in percent of the added dose per million cells.

[4] = Biodistribution of ^111In-labeled peptides in B16-F1 melanoma-bearing mice; type: in vivo, mouse (B6D2F1); conditions: female, iv, total radioactivity, ^111In-labeled peptide, 185 kBq i.v., mean ± SEM of three experiments, n = 5 animals each
Procedure, shortened: (§3)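 B16-F1 cells (about 5 × 10^5) grown s.c. in female B6D2F1 mice; 7 days later 185 kBq ^111In-labeled peptide injected i.v. Tissues collected at 4, 24 and 48 h and γ-counted, uptake given as %ID/g (mean ± SEM); non-specific uptake from co-injection of 50 µg α-MSH. Urine metabolites analysed by RP-HPLC/γ-detection.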

[5] = tested on: B16-F1 tumor-bearing mice; assay: as above; type: in vivo, mouse (B6D2F1); conditions: in vivo
Procedure, shortened: as §3

[6] = B6D2F1 (C57BL/6 × DBA/2F1 hybrids), mouse, blood, read-out: Blood uptake
[7] = B6D2F1 (C57BL/6 × DBA/2F1 hybrids), mouse, muscle, read-out: Muscle uptake
[8] = B6D2F1 (C57BL/6 × DBA/2F1 hybrids), mouse, skin, read-out: Skin uptake
[9] = B6D2F1 (C57BL/6 × DBA/2F1 hybrids), mouse, tumor, read-out: Tumor uptake
[10] = B6D2F1, mouse, bone, read-out: Bone uptake
[11] = B6D2F1, mouse, heart, read-out: Heart uptake
[12] = B6D2F1, mouse, kidney, read-out: Kidney uptake
[13] = B6D2F1, mouse, liver, read-out: Liver uptake
[14] = B6D2F1, mouse, lung, read-out: Lung uptake
[15] = B6D2F1, mouse, pancreas, read-out: Pancreas uptake
[16] = B6D2F1, mouse, small intestines, read-out: Small intestines uptake
[17] = B6D2F1, mouse, spleen, read-out: Spleen uptake
[18] = B6D2F1, mouse, stomach, read-out: Stomach uptake

T1 sequence (Q01727 whole entry): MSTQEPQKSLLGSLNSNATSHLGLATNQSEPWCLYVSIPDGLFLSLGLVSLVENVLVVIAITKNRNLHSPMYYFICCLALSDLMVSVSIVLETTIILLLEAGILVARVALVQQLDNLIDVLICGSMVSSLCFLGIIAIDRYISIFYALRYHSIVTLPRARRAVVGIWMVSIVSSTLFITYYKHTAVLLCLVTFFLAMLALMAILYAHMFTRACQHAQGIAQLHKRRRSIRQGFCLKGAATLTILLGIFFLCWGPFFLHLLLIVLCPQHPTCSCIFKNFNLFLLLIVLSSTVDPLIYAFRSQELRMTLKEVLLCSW
T2 sequence (Q01726 whole entry): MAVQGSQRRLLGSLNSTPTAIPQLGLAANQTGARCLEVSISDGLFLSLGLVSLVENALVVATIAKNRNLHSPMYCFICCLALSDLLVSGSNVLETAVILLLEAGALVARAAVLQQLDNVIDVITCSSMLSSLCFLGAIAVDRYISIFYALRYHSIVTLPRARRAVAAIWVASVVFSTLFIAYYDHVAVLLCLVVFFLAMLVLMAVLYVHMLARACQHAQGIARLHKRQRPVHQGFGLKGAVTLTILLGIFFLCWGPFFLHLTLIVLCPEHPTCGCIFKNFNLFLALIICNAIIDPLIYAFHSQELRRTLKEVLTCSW

CCCC[C@H](NC(C)=O)C(=O)N[C@@H](CC(=O)O)C(=O)N[C@@H](Cc1c[nH]cn1)C(=O)N[C@H](Cc1ccccc1)C(=O)N[C@@H](CCCNC(=N)N)C(=O)N[C@@H](Cc1c[nH]c2ccccc12)C(=O)NCC(=O)N[C@@H](CCCCNC(=O)CN1CCN(CC(=O)O)CCN(CC(=O)O)CCN(CC(=O)O)CC1)C(=O)N[C@H](CC(=O)O)C(=O)N[C@H](CC(=O)O)C(=O)O [DOTA-NAP-D-Asp-D-Asp, Ac-Nle-Asp-His-D-Phe-Arg-Trp-Gly-Lys(DOTA)-D-Asp-D-Asp-OH] (Ac-[Nle]DH[dF]RWGK(DOTA)[dD][dD]-OH)
Reduction of MC1R affinity compared to DOTA-NAP-amide [1]: ~ 10 fold
Reduction of MC1R affinity compared to DOTA-NAP-amide [2]: ~ 10 fold
Internalization profile (in words) [3]: rapid internalization
tissue uptake at 4 h [4, 6]: 0.01 %ID/g
tissue uptake at 24 h [4, 6]: 0.01 %ID/g
tissue uptake at 48 h [4, 6]: 0.01 %ID/g
tissue uptake at 48 h ([4]; B6D2F1 (C57BL/6 × DBA/2F1 hybrids), mouse, bone, read-out: Bone uptake): 0.07 ± 0.01 %ID/g
tissue uptake at 4 h [4, 7]: 0.02 %ID/g
tissue uptake at 24 h [4, 7]: 0.02 %ID/g
tissue uptake at 48 h [4, 7]: 0.03 %ID/g
tissue uptake at 4 h [4, 8]: 0.06 ± 0.01 %ID/g
tissue uptake at 24 h [4, 8]: 0.06 %ID/g
tissue uptake at 48 h [4, 8]: 0.04 %ID/g
tissue uptake at 24 h [4, 9]: 0.63 ± 0.03 %ID/g
tissue uptake at 48 h [4, 9]: 0.23 ± 0.02 %ID/g
tissue uptake at 4 h [4, 10]: 0.07 ± 0.01 %ID/g
tissue uptake at 24 h [4, 10]: 0.06 ± 0.01 %ID/g
tissue uptake at 4 h [4, 11]: 0.03 %ID/g
tissue uptake at 24 h [4, 11]: 0.03 %ID/g
tissue uptake at 48 h [4, 11]: 0.03 %ID/g
tissue uptake at 24 h [4, 12]: 4.09 ± 0.16 %ID/g
tissue uptake at 48 h [4, 12]: 2.02 ± 0.08 %ID/g
tissue uptake at 4 h [4, 13]: 0.1 %ID/g
tissue uptake at 24 h [4, 13]: 0.09 %ID/g
tissue uptake at 48 h [4, 13]: 0.07 %ID/g
tissue uptake at 4 h [4, 14]: 0.06 %ID/g
tissue uptake at 24 h [4, 14]: 0.04 %ID/g
tissue uptake at 48 h [4, 14]: 0.03 %ID/g
tissue uptake at 4 h [4, 15]: 0.03 %ID/g
tissue uptake at 24 h [4, 15]: 0.02 %ID/g
tissue uptake at 48 h [4, 15]: 0.03 %ID/g
tissue uptake at 4 h [4, 16]: 0.05 ± 0.01 %ID/g
tissue uptake at 24 h [4, 16]: 0.04 ± 0.01 %ID/g
tissue uptake at 48 h [4, 16]: 0.03 %ID/g
tissue uptake at 4 h [4, 17]: 0.07 %ID/g
tissue uptake at 24 h [4, 17]: 0.07 %ID/g
tissue uptake at 48 h [4, 17]: 0.07 %ID/g
tissue uptake at 4 h [4, 18]: 0.11 %ID/g
tissue uptake at 24 h [4, 18]: 0.03 %ID/g
tissue uptake at 48 h [4, 18]: 0.02 %ID/g
Kidney uptake/retention compared with reference (in words) [5]: markedly increased
Tumor uptake lower than that of reference ([5]; melanoma tumors): ~ 4 fold
